One data set relates to stroke. As to conditions: within 2 hours of stroke; cited from earlier work.
The subject of the next data set is mouse model of stroke. As to the kind of experiment: Mouse model of stroke, thrombolytic versus P-selectin antagonist. As to conditions: in vivo. An excerpt:
The present invention provides for treatment of ischemic disorders by inhibiting the ability of the neutrophil, monocyte or other white blood cell to adhere properly. This may be accomplished removing the counter ligand, such as CD18. […] The endothelial cells on the surface of the vessels in the subject may also be a target for treatment. […] The present invention may be used in conjunction with a thrombolytic therapy to increase efficacy of such therapy or to enable lower doses of such therapy to be administered to the subject so as to reduce side effects of the thrombolytic therapy.

In a further data set the test system is intracerebral hemorrhage. Type of data set: in vivo, mouse. As to the method: The hemoglobin content of brains subjected to the experimental procedures below was quantified using a spectrophotometric assay as follows. Whole brain tissue was obtained from freshly euthanized control or experimental animals, and each brain was treated individually as follows. Distilled water (250 μl) was added to each brain, followed by homogenization, for 30 sec (Brinkman Instruments, Inc., Westbury, N.Y.), sonification on ice with a pulse ultrasonicator for 1 minute (SmithKline Corporation, Collegeville, Pa.), and centrifugation at 13,000 rpm for 30 minutes (Baxter Scientific Products, Deerfield, Ill.). After collecting the hemoglobin-containing supernatant, 80 μl of Drabkin's reagent (purchased from Sigma Diagnostics, St. Louis, Mo; K3Fe(CN)6 200 mg/L, KCN 50 mg/L, NaHCO3 1 g/L, pH 8.6 ^25) was added to a 20 μl aliquot and allowed to stand for 15 minutes. This reaction converts hemoglobin to cyanomethemoglobin, which has an absorbance peak at 540 nm, and whose concentration can then be assesses by the optical density of the solution at ≈550 nm wavelength ^26. To validate that the measured absorbance following these procedures reflects the amount of hemoglobin, known quantities of bovine erythrocyte hemoglobin (Sigma, St. Louis, Mo.) were analyzed using similar procedures alongside every brain tissue assay. As an additional measure, blood was obtained from control mice by cardiac puncture following anesthesia. Incremental aliquots of this blood were then added to freshly homogenized brain tissue obtained from untreated mice to generate a standard absorbance curve.
Focal cerebral ischemia was produced in animals by transient right middle cerebral artery occlusion using a method previously described in detail ^28,29. Briefly, a heat-blunted 12 or 13 mm 5-0 or 6-0 gauge nylon suture was passed into the right internal carotid artery to the level of the middle cerebral artery. After 45 minutes, the occluding suture was removed to reestablish perfusion. Immediately following removal of the occluding suture, animals received either intravenous tissue plasminogen activator (10 mg/kg in 0.2 ml normal saline solution, Stroke+rt-PA) or normal saline solution (Stroke+Saline) given by dorsal penile vein injection. At 24 hours, brain tissue was harvested immediately after rapid anesthetized decapitation. […] The other half of each brain was immersed in saline for an identical duration, and then subjected to the procedures described above for the spectrophotometric hemoglobin assay.
The degree of ICH was first scored visually by a blinded observer. […] Sections were inspected by a blinded observer and brains were given an ICH score from a graded scale based on maximal hemorrhage diameter seen on any of the sections [ICH score 0, no hemorrhage; 1, <1 mm; 2, 1-2 mm; 3, >2-3 mm; 4, >3 mm]. Slices from each brain were then pooled, homogenized, and then treated according to the procedures described above for the spectrophotometric hemoglobin assay.
Spectrophotometric hemoglobin assay and visual ICH score: ICH was quantified by a spectrophotometric-based assay which we have developed and validated ^11,12. In brief, mouse brains were homogenized, sonicated, centrifuged, and methemoglobin in the supernatants converted (using Drabkin's reagent) to cyanomethemoglobin, the concentration of which was assessed by measuring O.D. at 550 nm against a standard curve generated with known amounts of hemoglobin. […]

Another data set deals with acute ischemic stroke. The conditions noted are these: within 7 hours of stroke onset; cited from earlier work.
A short description of another data set: Protime and APTT in mice. Type of data set: in vivo, mouse. As to conditions: 300 μg/kg, n=7. An excerpt: The potency of Factor IXai as an anticoagulant agent stems from the integral role of activated Factor IX in the coagulation cascade.
In data set [1] the test system is mouse model of cerebral ischemia and reperfusion (stroke). The class given is in vivo. As for the experimental part:
In stroke and other ischemic disorders, there may be clinical benefit derived by lysing an existing thrombus, but there is also the potentially devastating complication of hemorrhage. In the current experiments, the mouse model of cerebral ischemia and reperfusion (stroke) was used. […]
Murine stroke model. Transient focal cerebral ischemia was induced in mice by intralumenal occlusion of the middle cerebral artery (45 minutes) and reperfusion (22 hrs) as previously reported ^7. Serial measurements of relative cerebral blood flow (CBF) were recorded via laser doppler flowmetry ^7, and infarct volumes (% ipsilateral hemisphere) determined by planimetric/volumetric analysis of triphenyl tetrazolium chloride (TTC)-stained serial cerebral sections ^7.
Preparation of Factor IXai ^13: Factor IXai was prepared by selectively modifying the active site histidine residue on Factor IXa, using dansyl-glu-gly-arg-chloromethylketone. Proplex was applied to a preparative column containing immobilized calcium-dependent monoclonal antibody to Factor IX. […] Purified Factor IXa was reacted with a 100-fold molar excess of dansyl-glu-gly-arg chloromethylketone, and the mixture dialyzed. […] IXai was subsequently frozen into aliquots at −80° C. until the time of use. For those experiments in which IXai was used, it was given as a single intravenous bolus at the indicated times and at the indicated doses.

In data set [2] the test system is left circumflex coronary artery occlusion. The conditions noted are these: dogs; cited from earlier work.
For a further data set, the target named is T1, Factor IXa (Homo sapiens, UniProt P00740).
T1 construct: made in house
As to the kind of experiment: Procoagulant activity of the prepared Factor IXai. The class given is biochemical. As to conditions: final product. As to the method: Preparation of Factor IXai ^13: Factor IXai was prepared by selectively modifying the active site histidine residue on Factor IXa, using dansyl-glu-gly-arg-chloromethylketone. Proplex was applied to a preparative column containing immobilized calcium-dependent monoclonal antibody to Factor IX. The column was washed, eluted with EDTA-containing buffer, and Factor IX in the eluate (confirmed as a single band on SDS-PAGE) was then activated by applying Factor XIa (incubating in the presence of CaCl2). Purified Factor IXa was reacted with a 100-fold molar excess of dansyl-glu-gly-arg chloromethylketone, and the mixture dialyzed. […] This material (Factor IXai) was then used for experiments following filtration (0.2 μm) and chromatography on DeToxi-gel columns, to remove any trace endotoxin contamination (in sample aliquots, there was no detectable lipopolysaccharide). IXai was subsequently frozen into aliquots at −80° C. until the time of use. For those experiments in which IXai was used, it was given as a single intravenous bolus at the indicated times and at the indicated doses.

Data set [3] has as its system platelet accumulation in ipsilateral hemisphere. As to the kind of experiment: 111Indium-platelet accumulation in stroke. The conditions noted are these: 300 μg/kg prior to occlusion, vs vehicle. Type of data set: in vivo, mouse. As for the experimental part: ^111Indium-platelet studies: Platelet accumulation was determined using ^111Indium labeled platlets, collected and prepared as previously described ^8. Immediately prior to surgery, mice were given 5×10^6 111In-labeled-platelets intravenously; deposition was quantified after 24 hours by as ipsilateral cpm/contralateral cpm.

For a further data set, the system named is cross-linked fibrin. As to the kind of experiment: Fibrin immunoblotting in stroke brain. The class given is in vivo, mouse. As to conditions: 300 μg/kg prior to stroke. As for the experimental part: Fibrin immunoblotting/immunostaining. The accumulation of fibrin was measured following sacrifice (of fully heparinized animals) using immunoblotting/immunostaining procedures which have been recently described and validated ^9. Because fibrin is extremely insoluble, brain tissue extracts where prepared by plasmin digestion, then applied to a standard SDS-polyacrylamide gel for electrophoresis, followed by immunoblotting using a polyclonal rabbit anti-human antibody prepared to gamma-gamma chain dimers present in cross-linked fibrin which can detect murine fibrin, with relatively little cross-reactivity with fibrinogen ^10. Fibrin accumulation was reported as an ipsilateral to contralateral ratic. In additional experiments, brains were embedded in paraffin, sectioned, and immunostained using the same anti-fibrin antibody.
On the technique in general: A western blot detects proteins with antibodies after separation by electrophoresis.

Setting [4] is: 300 μg/kg i.v. just prior to surgery, 24 hours.
The mark [5] stands for this setting: Table II, Experimental group mean.

“Also recorded” adds a separate entry of the source.

T1 sequence (P00740 227-461 limits assumed): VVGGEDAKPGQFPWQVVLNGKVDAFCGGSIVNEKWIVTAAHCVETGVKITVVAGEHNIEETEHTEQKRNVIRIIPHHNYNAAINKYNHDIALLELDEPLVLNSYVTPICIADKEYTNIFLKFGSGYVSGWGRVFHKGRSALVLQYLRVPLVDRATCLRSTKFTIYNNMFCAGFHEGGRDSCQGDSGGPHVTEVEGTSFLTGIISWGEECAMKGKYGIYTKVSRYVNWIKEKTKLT
T1 sequence (P00740 47-191 partner limits assumed): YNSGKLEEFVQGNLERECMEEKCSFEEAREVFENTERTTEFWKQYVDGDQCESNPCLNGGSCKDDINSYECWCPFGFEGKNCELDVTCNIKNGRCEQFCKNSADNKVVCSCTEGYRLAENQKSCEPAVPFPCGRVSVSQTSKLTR

In the case of “rt-PA: recombinant human tissue plasminogen activator, Genentech”, in the data set on stroke, the “reduction of infarct size” value was “up to 77%”. Moreover, in the data set on mouse model of stroke, the hemorrhaging result is “some visible hemorrhaging” and the stroke disorder entry is recorded as “improvement of the stroke disorder”. In addition, in the data set on intracerebral hemorrhage (i.v. after reperfusion, 10 mg/kg), the “increase of OD vs physiological saline solution” value came out at 1.8 fold. Besides, in the data set on intracerebral hemorrhage (stroke model, rt-PA after reperfusion), the “visual ICH score” value is listed as “increase in the visual ICH score”. Also, the “rate of hemorrhagic conversion” value with acute ischemic stroke is 7-20%.
For “Factor IXai: Factor IXa with active site histidine modified by dansyl-glu-gly-arg-chloromethylketone; competitive inhibitor of Factor IXa”, in “Protime and APTT in mice”, the APTT is reported as 79.9±8.9 and the “PT (protime)” value amounted to 13.4±0.7. In addition, the cerebral infarction volume entry in data set [1] (300 μg/kg given after MCA occlusion, following removal of the occluding suture, vs vehicle) is recorded as “significantly reduce cerebral infarction volumes”. Besides, the cerebral infarct volume entry in data set [1] (300 μg/kg i.v. immediately prior to stroke, vs controls) is listed as “smaller infarct volumes; also recorded: reduce cerebral infarct volumes”. Also, in data set [1] (setting [4]), the mortality result is given as “reduced mortality” and the neurological deficits entry is “less neurological deficits”. In [1] (setting [5]), the inf vol was found to be 3.47, the “occ dop 1” value amounted to 0.16, the “occ dop 2” value is recorded as 0.43 and the reper dop is recorded as 0.53. Further, the sac dop in data set [1] (Table II, Experimental group mean, at sacrifice) came to 0.75. Besides, in [1] (Table II, Experimental group mean, baseline relative doppler flow), the dopp worked out at 1.04. The same substance showed a grade in data set [1] (Table II, Experimental group mean, neurological grade) of 1.67. In addition, the “optimal dose (infarct volume dose-response)” value in data set [1] (doses 300, 600, 1200 μg/kg immediately prior to stroke) was found to be 0.6 mg/kg. Moreover, the “I/C Ratio” value in [1] (mouse, in vivo) amounted to 1.08. The “cerebral blood flow / perfusion at 24 hours” value in data set [1] (mouse, in vivo, iv) is given as “improved cerebral perfusion; also recorded: significant increase in CBF”. Also, the apparent intracerebral hemorrhage result with intracerebral hemorrhage (setting [4]) was “free of apparent intracerebral hemorrhage”. Further, the “ICH (spectrophotometric assay, corroborated by visual score)” value in the data set with intracerebral hemorrhage (highest dose tested, 1200 μg/kg) is “increase in ICH”. The “ICH (spectrophotometric hemoglobin assay)” value with intracerebral hemorrhage (mouse, in vivo) was “no significant increase in ICH”. Moreover, in data set [2], the “activated partial thromboplastin time (APTT)” value was “did not prolong” and the “progressive coronary artery occlusion after electric current” value is recorded as “effective at preventing progressive coronary artery occlusion”. Also, the procoagulant activity entry with Factor IXa was “devoid of procoagulant activity”. In addition, in data set [3], the “accumulation of radiolabelled platelets in the ipsilateral hemisphere” value is recorded as “significant reduction”. For the same substance, the “ipsilateral accumulation of fibrin (immunoblot)” value in the data set on cross-linked fibrin is “no apparent increase”.

The record behind these values is patent US8128963B2, “Methods for treating ischemic disorders using carbon monoxide” (The Trustees of Columbia University in the City Of New York, priority 1999, dated 2012).
